Calls of active or inactive are those of the source. No cut-off for these calls is given here.
Columns and labels:
Rattus norvegicus [1] = organism: Rattus norvegicus; assay: Anticonvulsant activity against PTZ-induced epileptic seizure Sprague-Dawley rat model assessed as duration of seizure compound infused into hippocampal region and 10 mins later injected with PTZ and measured for 2 hrs post PTZ-stimulation (reference value: 376 +/- 76.43 sec); assay type: functional
Rattus norvegicus [2] = organism: Rattus norvegicus; assay: Anticonvulsant activity against PTZ-induced epileptic seizures Sprague-Dawley rat model assessed as decrease in number of seizures at high stage (stage 4 and 5) compound infused into hippocampal region and 10 mins later injected with PTZ and measured for 2 hrs post-PTZ stimulation; assay type: functional, organism-based
[3] = target: T1, KCNMA1/KCNMB4 (Rattus norvegicus) (UniProt Q62976+Q9ESK8); assay: Inhibition of BK alpha/beta-4 in PTZ-stimulated rat hippocampal pyramidal neurons assessed as increase in AHP size at 300 pA at -80mV holding potential measured after 10 mins by whole cell current clamp assay; assay type: protein-complex assay
Rattus norvegicus [4] = organism: Rattus norvegicus; assay: Effect on neuronal network in PTZ-induced epileptic seizures Sprague-Dawley rat model assessed as lowered PSD at theta wave band compound infused into hippocampal region and 10 mins later injected with PTZ and measured after 2 hrs by power spectral density analysis; assay type: functional, organism-based
[5] = target: T1, KCNMA1/KCNMB4 (Rattus norvegicus); assay: Inhibition of BK alpha/beta-4 in PTZ-stimulated rat hippocampal pyramidal neurons assessed as slower decay of after hyperpolarization at 300 pA at -80mV holding potential measured after 10 mins by whole cell current clamp assay; assay type: protein-complex assay
Rattus norvegicus [6] = organism: Rattus norvegicus; assay: Effect on neuronal network in PTZ-induced epileptic seizures Sprague-Dawley rat model assessed as lowered PSD at beta wave band compound infused into hippocampal region and 10 mins later injected with PTZ and measured after 2 hrs by power spectral density analysis; assay type: functional, organism-based
KCNMA1/KCNMB4 = KCNMA1/KCNMB4 (Homo sapiens, UniProt Q12791+Q86W47); assay: Inhibition of human BK alpha/beta4 channel expressed in HEK293T cells assessed as inhibition of K+ outward current fraction at -80 mV holding potential by whole cell patch clamp technique; assay type: cell-based
Sequence of KCNMA1/KCNMB4 (Q12791 whole entry, the tested form may be a part): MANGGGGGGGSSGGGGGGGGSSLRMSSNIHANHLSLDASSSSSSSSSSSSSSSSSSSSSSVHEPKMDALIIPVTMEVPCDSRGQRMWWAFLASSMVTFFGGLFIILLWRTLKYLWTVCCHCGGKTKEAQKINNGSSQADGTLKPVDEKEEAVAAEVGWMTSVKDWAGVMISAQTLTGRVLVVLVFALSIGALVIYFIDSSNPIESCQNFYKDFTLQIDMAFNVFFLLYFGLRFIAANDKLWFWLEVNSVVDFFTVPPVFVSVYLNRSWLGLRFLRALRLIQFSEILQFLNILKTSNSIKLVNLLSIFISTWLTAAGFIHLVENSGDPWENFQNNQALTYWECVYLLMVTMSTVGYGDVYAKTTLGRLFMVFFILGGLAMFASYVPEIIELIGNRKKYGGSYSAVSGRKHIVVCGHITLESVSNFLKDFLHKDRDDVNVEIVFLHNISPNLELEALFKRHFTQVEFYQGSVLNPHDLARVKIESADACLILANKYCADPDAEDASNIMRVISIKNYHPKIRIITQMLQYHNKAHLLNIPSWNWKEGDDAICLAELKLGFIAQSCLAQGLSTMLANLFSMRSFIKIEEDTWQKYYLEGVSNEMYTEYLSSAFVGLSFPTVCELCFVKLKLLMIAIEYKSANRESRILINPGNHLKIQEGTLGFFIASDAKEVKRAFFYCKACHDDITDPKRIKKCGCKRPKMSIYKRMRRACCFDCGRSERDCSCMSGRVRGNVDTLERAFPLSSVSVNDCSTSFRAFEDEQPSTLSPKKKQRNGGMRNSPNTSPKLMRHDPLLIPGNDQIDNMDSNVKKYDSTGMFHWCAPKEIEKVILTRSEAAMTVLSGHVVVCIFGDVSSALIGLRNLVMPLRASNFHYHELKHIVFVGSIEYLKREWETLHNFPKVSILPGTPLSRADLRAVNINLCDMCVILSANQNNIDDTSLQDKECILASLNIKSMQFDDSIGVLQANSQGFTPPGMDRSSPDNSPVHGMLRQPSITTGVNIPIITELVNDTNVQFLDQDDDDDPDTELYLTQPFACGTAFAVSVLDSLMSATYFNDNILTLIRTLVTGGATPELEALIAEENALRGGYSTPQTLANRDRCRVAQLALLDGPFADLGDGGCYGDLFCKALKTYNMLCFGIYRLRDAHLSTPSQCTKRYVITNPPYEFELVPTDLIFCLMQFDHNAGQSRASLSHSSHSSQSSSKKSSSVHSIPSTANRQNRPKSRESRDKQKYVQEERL
Sequence of KCNMA1/KCNMB4 (Q86W47 whole entry, the tested form may be a part): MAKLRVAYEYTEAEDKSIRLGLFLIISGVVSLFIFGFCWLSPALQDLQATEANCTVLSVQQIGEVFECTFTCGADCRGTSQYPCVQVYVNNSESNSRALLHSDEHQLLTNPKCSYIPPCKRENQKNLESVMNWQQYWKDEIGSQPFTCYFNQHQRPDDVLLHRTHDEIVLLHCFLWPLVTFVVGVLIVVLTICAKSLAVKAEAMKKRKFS

Rattus norvegicus [7] = organism: Rattus norvegicus; assay: Effect on neuronal network in PTZ-induced epileptic seizures Sprague-Dawley rat model assessed as lowered PSD at gamma wave band compound infused into hippocampal region and 10 mins later injected with PTZ and measured after 2 hrs by power spectral density analysis; assay type: functional, organism-based
Homo sapiens [8] = organism: Homo sapiens; assay: Inhibition of human BK alpha/human beta4 E122K mutant expressed in HEK293T cells assessed as K+ fractional outward current at 10 uM at -80 mV holding potential by whole cell patch clamp technique relative to control; assay type: cell-based
[9] = target: T1, KCNMA1/KCNMB4 (Rattus norvegicus); assay: Inhibition of BK alpha/beta-4 in PTZ-stimulated rat hippocampal pyramidal neurons assessed as larger action potential width at 300 pA current injection at -80mV holding potential measured after 10 mins by whole cell current clamp assay; assay type: protein-complex assay
Rattus norvegicus [10] = organism: Rattus norvegicus; assay: (§1) Neuroprotective activity in PTZ-induced epileptic seizure Sprague-Dawley rat model assessed as inhibition of hippocampal destruction by measuring increase in Nissl stained pyramidal neurons in ipsilateral hippocampus CA3 region compound infused into hippocampal region and 10 mins later injected with PTZ and measured after 3 days by Nissl staining based microscopic analysis; assay type: functional, organism-based
Rattus norvegicus [11] = organism: Rattus norvegicus; assay: as §1, with “CA1” for “CA3”; assay type: functional, organism-based
Rattus norvegicus [12] = organism: Rattus norvegicus; assay: Inhibition of C-Fos expression in PTZ-induced epileptic seizures Sprague-Dawley rat model assessed as inhibition of FLI-positive pyramidal neurons in CA3 region of contralateral hippocampus at 10 uM compound infused into hippocampal region and 10 mins later injected with PTZ and measured after 2 hrs by immunohistochemistry; assay type: functional, organism-based
Homo sapiens [13] = organism: Homo sapiens; assay: Inhibition of human BK alpha/human beta-4 E128K mutant expressed in HEK293T cells assessed as K+ fractional outward current at 10 uM at -80 mV holding potential by whole cell patch clamp technique relative to control; assay type: cell-based
[14] = target: T1, KCNMA1/KCNMB4 (Rattus norvegicus); assay: Inhibition of BK alpha/beta-4 in PTZ-stimulatedrat hippocampal pyramidal neurons assessed as reduction in neuronal firing rate at -80mV holding potential in presence of 200 to 300 pA current injection measured after 10 mins by whole cell current clamp assay; assay type: protein-complex assay

CC[C@H](C)[C@H](NC(=O)[C@H](CC(C)C)NC(=O)CNC(=O)[C@H](Cc1ccccc1)NC(=O)[C@H](CO)NC(=O)CN)C(=O)N[C@@H](CC(=O)O)C(=O)N[C@H](C(=O)N[C@@H](CCCCN)C(=O)N[C@H]1CSSC[C@@H]2NC(=O)[C@H](CCCCN)NC(=O)CNC(=O)[C@H](CCC(N)=O)NC(=O)CNC(=O)[C@H](CO)NC(=O)CNC(=O)[C@H]([C@@H](C)O)NC(=O)[C@H](C(C)C)NC(=O)[C@H](CCCCN)NC(=O)[C@H](CCCCN)NC(=O)[C@@H]3CSSC[C@@H](C(=O)N[C@@H](Cc4ccc(O)cc4)C(=O)O)N[C@@H](CCCNC(=N)N)C(=O)[C@H](CSSC[C@H](NC(=O)[C@H](CCC(=O)O)NC(=O)[C@H](CO)NC(=O)[C@H](CO)NC(=O)[C@H](C)NC(=O)[C@H](Cc4ccccc4)NC1=O)C(=O)N[C@@H](Cc1c[nH]c4ccccc14)C(=O)N[C@@H]([C@@H](C)O)C(=O)N[C@@H](C)C(=O)N3)N[C@@H](CCC(N)=O)C(=O)NC(=O)[C@H](CC(N)=O)NC(=O)[C@H](CC(N)=O)NC(=O)[C@H](CCC(N)=O)NC2=O)C(C)C
Time (Rattus norvegicus [1]): 198 s | Activity (Rattus norvegicus [2]): Active | inhibition [3]: Active | Activity (Rattus norvegicus [4]): Active | inhibition [5]: Active | Activity (Rattus norvegicus [6]): Active | IC50 (KCNMA1/KCNMB4): 602 nM | Activity (Rattus norvegicus [7]): Active | Ratio (Homo sapiens [8]): 0.88 | inhibition [9]: Active | Activity (Rattus norvegicus [10]): Active | Activity (Rattus norvegicus [11]): Active | inhibition (Rattus norvegicus [12]): Active | Ratio (Homo sapiens [13]): 0.75 | inhibition [14]: Active

From ChEMBL document CHEMBL4354835, “Selective Blockade of Neuronal BK (α + β4) Channels Preventing Epileptic Seizure” (J Med Chem, 2020)
